Patent US8173689B2 (Novartis AG, priority 2006, dated 2012)

How the values were obtained:
kinase domain of cKIT = target: T1, kinase domain of cKIT (Homo sapiens, UniProt P10721); experiment: Inhibition of cKIT kinase signaling in an in vitro biochemical assay (alphascreen); conditions: tested at about 1 μM; for inhibition at 1 µM: read-out: cKit percent inhibition
T1 construct: The kinase domain of cKIT was assayed in 50 mM Hepes; purchased Upstate 14-559
Method: (§1) The IC50 values for the inhibition of RTKs were determined in the alphascreen format measuring the inhibition by compound of phosphate transfer to a substrate by the respective enzyme. Briefly, the respective RTK domain purchased as human recombinant protein (cKIT Upstate #14-559, PDGFRb Invitrogen #P3082) were incubated with serial dilutions of compound in the presence of substrate and ATP concentrations within 3 times the Km of the enzyme.
(§2) Alphascreen PY20 beads were added to the stopped cKIT reactions and PY20 Ab/Protein A Alphascreen beads were added to the PDGFRβ stopped reactions. Both reactions were incubated overnight and read on the Alphascreen reader.

kinase domain of PDGFRβ = target: T2, kinase domain of PDGFRβ (Homo sapiens, UniProt P09619); experiment: Inhibition of PDGFRb kinase signaling in an in vitro biochemical assay (alphascreen); conditions: tested at about 1 μM; read-out: PDGFRβ percent inhibition
T2 construct: The kinase domain of PDGFRβ was assayed in 50 mM Hepes; purchased Invitrogen P3082
T2 sequence (P09619 600-962 limits assumed): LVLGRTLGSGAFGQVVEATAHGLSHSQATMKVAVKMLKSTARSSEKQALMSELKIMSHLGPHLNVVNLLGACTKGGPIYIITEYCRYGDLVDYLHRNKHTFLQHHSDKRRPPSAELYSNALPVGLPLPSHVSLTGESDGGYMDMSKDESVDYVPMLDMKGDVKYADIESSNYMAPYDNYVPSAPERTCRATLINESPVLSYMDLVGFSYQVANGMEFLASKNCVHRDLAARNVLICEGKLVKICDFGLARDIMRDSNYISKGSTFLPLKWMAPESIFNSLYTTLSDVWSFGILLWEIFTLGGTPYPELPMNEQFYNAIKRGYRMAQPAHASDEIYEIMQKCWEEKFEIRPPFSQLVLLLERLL
Method: as §1, §2

[1] = target: T3, cytoplasmic domain of the human CSF-1R (Homo sapiens, UniProt P07333); experiment: In vitro kinase assay for colony stimulating factor-1 receptor (AlphaScreen); type: biochemical; conditions: tested at about 1 μM; for inhibition at 1 µM: read-out: CSF-1R percent inhibition
T3 construct: Recombinant protein corresponding to the cytoplasmic domain of the human CSF-1R; purchased Invitrogen Corporation, Carlsbad, Calif; PV3249
T3 sequence (P07333 539-972 limits assumed): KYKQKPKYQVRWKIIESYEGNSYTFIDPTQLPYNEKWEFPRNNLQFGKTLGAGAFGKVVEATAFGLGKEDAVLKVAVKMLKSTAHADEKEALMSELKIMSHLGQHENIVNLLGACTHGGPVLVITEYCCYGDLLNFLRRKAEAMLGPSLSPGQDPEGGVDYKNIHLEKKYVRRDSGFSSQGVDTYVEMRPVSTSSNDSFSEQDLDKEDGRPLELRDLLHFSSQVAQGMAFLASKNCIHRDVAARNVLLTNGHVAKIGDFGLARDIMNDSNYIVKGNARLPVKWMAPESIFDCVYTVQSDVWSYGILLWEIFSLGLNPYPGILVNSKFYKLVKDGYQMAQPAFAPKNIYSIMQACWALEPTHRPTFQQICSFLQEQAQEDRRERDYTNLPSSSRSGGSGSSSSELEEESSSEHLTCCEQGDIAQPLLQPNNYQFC
Method: The kinase activity of various protein tyrosine kinases can be measured by providing ATP and a suitable peptide or protein tyrosine-containing substrate, and assaying the transfer of phosphate moiety to the tyrosine residue. Recombinant protein corresponding to the cytoplasmic domain of the human CSF-1R was purchased from Invitrogen Corporation, Carlsbad, Calif. U.S.A. (#PV3249). For each assay, test compounds were serially diluted, starting at 25 μM with 3 fold dilutions, in DMSO in 384 well plates then mixed with an appropriate kinase reaction buffer consisting of 50 mM Hepes, 5 mM MgCl2, 10 mM MnCl2, 0.1% BSA, pH 7.5, 1.0 mM dithiothreitol, 0.01% Tween 80 plus 1 μM ATP. […] Added to the stopped reaction mix was 30 μL of PT66 Alphascreen beads (Perkin Elmer, Boston, Mass., U.S.A.). The reaction was incubated overnight and read on the Envision (Perkin Elmer). Phosphorylated peptide product was measured with the AlphaScreen system (Perkin Elmer) using acceptor beads coated with anti-phosphotyrosine antibody PT66 and donor beads coated with streptavidin that emit a fluorescent signal at the 520-620 nm emission wave length if in close proximity.
CSF-1R kinase was added at final concentration of 4 nM.

T1 sequence (P10721 589-937 limits assumed): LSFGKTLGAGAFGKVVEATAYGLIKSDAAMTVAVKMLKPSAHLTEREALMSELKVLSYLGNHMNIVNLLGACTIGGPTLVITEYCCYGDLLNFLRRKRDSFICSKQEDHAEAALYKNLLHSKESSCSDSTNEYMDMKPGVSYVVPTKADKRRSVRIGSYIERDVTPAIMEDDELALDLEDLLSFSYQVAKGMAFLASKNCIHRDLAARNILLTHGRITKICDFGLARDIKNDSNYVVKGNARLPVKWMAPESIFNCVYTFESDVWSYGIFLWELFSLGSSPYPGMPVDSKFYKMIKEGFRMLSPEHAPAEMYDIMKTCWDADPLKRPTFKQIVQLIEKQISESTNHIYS

Row | inhibition at 1 µM (kinase domain of cKIT) | inhibition at 1 µM (kinase domain of PDGFRβ) | inhibition at 1 µM [1] | Compound | cKit percent inhibition (kinase domain of cKIT; compounds of Table 4) | CSF-1R percent inhibition ([1]; compounds of Table 4)
1 |  | 0% | 15% | CNC(=O)c1cc(Oc2ccc3nc(N[C@@H](C)c4ccc5ccccc5c4)oc3c2)ccn1 [Compound 20, 4-[2-((S)-1-Naphthalen-2-yl-ethylamino)-benzooxazol-6-yloxy]-pyridine-2-carboxylic acid methylamide] |  | 
2 | 0% | 21% | 77% | CNC(=O)c1cc(Oc2ccc3nc(NCCN4CCCCC4)oc3c2)ccn1 [Compound 64, 4-[2-(2-Piperidin-1-yl-ethyl-amino)-benzooxazol-6-yloxy]-pyridine-2-carboxylic acid methylamide] |  | 
3 |  | 14% | 11% | CNC(=O)c1cc(Oc2ccc3nc(Nc4ccccc4-n4cnc(C)c4)oc3c2)ccn1 [Compound 45, 4-{2-[2-(4-Methyl-imidazol-1-yl)-phenylamino]-benzooxazol-6-yloxy}-pyridine-2-carboxylic acid methylamide] |  | 
4 |  |  | 85% | CNC(=O)c1cc(Oc2ccc3nc(NC(C)c4nccs4)oc3c2)ccn1 (stereo not drawn) [Compound 6, 4-[2-(1-Thiazol-2-yl-ethylamino)-benzooxazol-6-yloxy]-pyridine-2-carboxylic acid methylamide] |  | 
5 |  | 0% | 50% | CNC(=O)c1cc(Oc2ccc3nc(NC4CCCC4)oc3c2)ccn1 [Compound 23, 4-(2-Cyclopentylamino-benzooxazol-6-yloxy)-pyridine-2-carboxylic acid methylamide] |  | 
6 |  | 15% | 26% | CNC(=O)c1cc(Oc2ccc3nc(Nc4ccccc4CCN4CCCC4)oc3c2)ccn1 [Compound 43, 4-{2-[2-(2-Pyrrolidin-1-yl-ethyl)-phenylamino]-benzooxazol-6-yloxy}-pyridine-2-carboxylic acid methylamide] |  | 
7 |  | 14% | 34% | CNC(=O)c1cc(Oc2ccc3nc(N[C@H](C(=O)O)c4ccccc4)oc3c2)ccn1 [Compound 38, (S)-[6-(2-Methylcarbamoyl-pyridin-4-yloxy)-benzooxazol-2-ylamino]-phenyl-acetic acid] |  | 

Continued, compound first:

Row | Compound | inhibition at 1 µM (kinase domain of cKIT) | inhibition at 1 µM (kinase domain of PDGFRβ) | inhibition at 1 µM [1] | cKit percent inhibition (kinase domain of cKIT; compounds of Table 4) | CSF-1R percent inhibition ([1]; compounds of Table 4)
8 | c1cc(Oc2ccc3nc(NCC4CCCCC4)oc3c2)cc(-c2nnco2)n1 [Compound 81, Cyclohexylmethyl-[6-(2-[1,3,4]oxadiazol-2-yl-pyridin-4-yloxy)-benzooxazol-2-yl]-amine] | 16% | 0% | 54% |  | 
9 | CNC(=O)c1cc(Oc2ccc3nc(NC4CCOCC4)oc3c2)ccn1 [Compound 30, 4-[2-(Tetrahydro-pyran-4-yl-amino)-benzooxazol-6-yloxy]-pyridine-2-carboxylic acid methylamide] |  | 14% | 25% |  | 
10 | 4-[2-(Benzo[1,3]dioxol-5-yl- amino)-benzooxazol-6- yloxy]-pyridine-2-carboxylic acid methylamide [Compound 95] |  |  |  | 42% | 100%
11 | CNC(=O)c1cc(Oc2ccc3nc(N[C@@H](CO)c4ccccc4)oc3c2)ccn1 [Compound 37, 4-[2-((R)-2-Hydroxy-1-phenyl-ethylamino)-benzooxazol-6-yloxy]-pyridine-2-carboxylic acid methylamide] |  | 16% | 79% |  | 
12 | CNC(=O)c1cc(Oc2ccc3nc(N[C@H](C(=O)NC)c4ccccc4)oc3c2)ccn1 [Compound 39, 4-{2-[((S)-Methylcarbamoyl-phenyl-methyl)-amino]-benzooxazol-6-yloxy}-pyridine-2-carboxylic acid methylamide] |  | 10% | 67% |  | 
13 | CNC(=O)c1cc(Oc2ccc3nc(N[C@@H](C(=O)O)c4ccccc4)oc3c2)ccn1 [Compound 35, (R)-[6-(2-Methylcarbamoyl-pyridin-4-yloxy)-benzooxazol-2-ylamino]-phenyl-acetic acid] |  | 9% | 19% |  | 
